Assay results taken from patent US6767705B2, “Reagents and methods for identifying and modulating expression of genes regulated by retinoids” (The Board of Trustees of the University of Illinois, priority 2000, dated 2004).

Tests used:
MCF-7 cells [1] = assay: Clonogenic assay (colony formation / plating efficiency) of MCF-7 cells after RA treatment; format: cell-based, human
Experimental: FIGS. 1A and 1B are graphs showing the effects of retinoic acid (RA) on colony formation by MCF-7 cells. In each assay, 1.5×10^5 cells were plated per P100, in the absence or in the presence of RA. For clonogenic assays, cells were trypsinized after treatment, and 2,500 cells were plated per P100 and grown in drug-free media. […] Each point represents the mean and standard deviation for triplicate assays.
Clonogenic assays were performed to analyze the differences in proliferative capacity in MCF-7 cells after treatment with 100 nM RA for varying times. Cells were exposed to 100 nM RA for 1-7 days and tested for their capacity to form colonies after treatment at each time point. […] The decrease was initially rapid (from 100% to 40% plating efficiency after 2 days incubation with RA) and decreased more slowly to a final plating efficiency of about 10% at day 7.

MCF-7 cells [2] = assay: cDNA microarray hybridization (Human UniGEM V) of RA-treated vs untreated MCF-7 cells; format: cell-based; conditions: 100 nM RA, 5 days
Experimental: To study gene expression changes, poly(A)+ RNA was isolated from untreated MCF-7 cells and from cells treated for 5 days with 100 nM RA. cDNA was prepared from these RNA populations and the cDNA hybridized with a cDNA microarray (Human UniGEM V cDNA microarray, Incyte Genomics, St. Louis, Mo.) that contains >7,000 cDNAs of different human genes and ESTs. cDNA probe synthesis, hybridization with the microarray and signal analyses were conducted by IncyteGenomics as a commercial service.

MCF-7 cells [3] = assay: RT-PCR analysis of expression of retinoid-inducible genes in MCF-7 cells; format: cell-based, human
Experimental: FIGS. 2A through 2C show the results of RT-PCR analysis of changes in the expression of retinoid-inducible genes as described in Example 1. The identity of each gene is followed by the NCBI Accession Number (in parentheses). […] The designations “R5” and “R8” correspond to days 5 and 8 after release from 5-day RA treatment, respectively.
RT-PCR analysis was carried out essentially as described (Noonan et al., 1990, Proc. Natl. Acad. Sci. USA 87: 7160-7164), using β-actin as an internal normalization standard.

MCF-7 cells [4] = assay: Immunocytochemical and immunoblotting analysis of IGFBP-3, HIF2α/EPAS-1 and EPLIN proteins in MCF-7 cells; format: cell-based, human; conditions: 100 nM RA for 5 days, MCF-7 cells (FIG. 3A, 3B)
Experimental: FIG. 3A is a photomicrograph and FIG. 3B is a photograph of an immunoblot showing induction of IGFBP-3, HIF2α/EPAS-1 and EPLIN proteins in RA-treated cells.
Induction of three genes in this group was tested and confirmed at the protein level, by immunocytochemical assays, shown in FIG. 3A, using rabbit polyclonal antibody against EPLIN (a gift of Dr. David Chang, UCLA), and goat polyclonal antibodies against IGFBP-3 and EPAS-1/HIF-2α (Santa Cruz Biotechnology, Inc., Santa Cruz, Calif.) and standard techniques. Antibody staining was detected using Vectastain kit (Vector Labs, Burlingame, Calif.) according to the manufacturer's instructions.
The EPLIN gene encodes two protein isoforms. EPLINα and EPLINβ, with the larger (β) isoform showing a stronger growth-inhibitory effect. The observed induction of EPLIN gene expression was confirmed by immunocytochemical and immunoblotting assays (results shown in FIGS. 3A and 3B). These assays were performed using rabbit polyclonal antibody against EPLIN (a gift of Dr. David Chang, UCLA) and were carried out by standard techniques. Antibody staining was detected using Vectastain kit (Vector Labs) for immunocytochemistry and horseradish peroxidase-conjugated goat anti-rabbit IgG (Santa Cruz) for immunobloting.

[5] = system: MCF-7 human breast carcinoma cells; conditions: cited from earlier work
p21 = conditions: retinoic acid-induced growth inhibition in MCF-7 cells; cited from earlier work
[6] = system: xenografts of MCF-10T neo mammary epithelial cells; conditions: xenografts in vivo after treatment with fenretinide; cited from earlier work
[7] = 100 nM RA, MCF-7 cells (FIG. 2A)

SMILES	plating efficiency, normalized to untreated control (MCF-7 cells [1]; 100 nM RA, after 2 days incubation, MCF-7 cells (FIG. 1A))	final plating efficiency, normalized to untreated control (MCF-7 cells [1]; 100 nM RA, day 7, MCF-7 cells (FIG. 1A))	plating efficiency at varying concentrations of RA (MCF-7 cells [1]; 40 hr treatment, indicated doses, lowest 10 nM, MCF-7 cells (FIG. 1B))	decrease in balanced differential expression, 20 genes (MCF-7 cells [2])	increase in balanced differential expression, 27 genes (MCF-7 cells [2])	maximum decrease in relative hybridization intensity of any gene in the microarray (MCF-7 cells [2])	maximum increase in relative hybridization intensity of any gene in the microarray (MCF-7 cells [2])	time course of changes in RNA levels of the 13 genes (MCF-7 cells [3]; [7])	time to maximum expression of RNF (MCF-7 cells [3]; [7])	RA dose-dependence of gene expression of the 13 genes (MCF-7 cells [3]; 40 hr treatment, lowest dose 10 nM, MCF-7 cells (FIG. 2B))	induction of 13 upregulated genes by RT-PCR (MCF-7 cells [3]; RA-treated MCF-7 cells, printed as '5-10 fold or more' (FIGS. 2A, 2B))	expression of IGFBP-3, EPAS-1/HIF2α and EPLIN proteins (MCF-7 cells [4])	continuous exposure required for the growth arrest effect to become apparent ([5]; low dose RA (between 10-100 nM), MCF-7 cells)	growth arrest and cell death in MCF-7 cells ([5]; relatively low doses of RA (between 10-100 nM))	induction of p21 (p21)	induction of the 13 genes (MCF-7 cells [3]; 1 μM fenretinide, MCF-7 cells (FIG. 2C))	induction of senescence-associated marker SA-β-gal [6]
CC1=C(/C=C/C(C)=C/C=C/C(C)=C/C(=O)O)C(C)(C)CCC1 [RA, all-trans retinoic acid]	40%	about 10%	dose-dependent reduction in plating efficiency at all tested doses (as low as 10 nM)	1.7-3.0 fold	1.4-2.5 fold	≤ 3 fold	≤ 2.5 fold	many of them increased their expression between days 1 and 4 of RA treatment	maximum expression after just one day of treatment	almost all of these genes were induced even by the lowest (10 nM) dose	5-10 fold	increased expression of the corresponding proteins	4 to 6 days	induce irreversible growth arrest in MCF-7 cells, while producing only a minor reduction in cell numbers caused by cell death	does not induce p21		
CC1=C(/C=C/C(C)=C/C=C/C(C)=C/C(=O)Nc2ccc(O)cc2)C(C)(C)CCC1 [fenretinide, 4-hydroxyphenylretinamide]																All 13 genes were also induced	Induction of SA-β-gal was also observed
